The subject of one data set is NIH3T3. The data set can be described thus: Antiproliferative activity against mouse 3T3 cells expressing human CSF1R after 72 hrs by Celltiter assay. It counts as functional.
In data set [1] the target is T1, Macrophage colony-stimulating factor 1 receptor (Homo sapiens, UniProt P07333). Description: Inhibition of CSF1R.
Data set [2] is described as follows: Half life in rat at 3 mg/kg, iv and 10 mg/kg, po. As to conditions: in vivo. The format is ADME, organism-based.
Data set [3] is described as follows: Volume of distribution at steady state in rat at 3 mg/kg, iv and 10 mg/kg, po. As to conditions: in vivo, read-out: Vdss. The format is ADME, organism-based.
The nature of data set [4]: Aqueous solubility of the compound. The format is physicochemical. Particulars: buffer.
Data set [5] in a line: Plasma protein binding assessed as percentage unbound.
Data set [6] in a line: Bioavailability in rat at 3 mg/kg, iv and 10 mg/kg, po. It counts as ADME, organism-based. Particulars: in vivo.
A short description of data set [7]: Clearance in rat at 3 mg/kg, iv and 10 mg/kg, po. It counts as ADME, organism-based. Particulars: in vivo.
Data set [8] deals with T2, NUAK family SNF1-like kinase 1 (Homo sapiens) (UniProt O60285).
T2 sequence (whole entry): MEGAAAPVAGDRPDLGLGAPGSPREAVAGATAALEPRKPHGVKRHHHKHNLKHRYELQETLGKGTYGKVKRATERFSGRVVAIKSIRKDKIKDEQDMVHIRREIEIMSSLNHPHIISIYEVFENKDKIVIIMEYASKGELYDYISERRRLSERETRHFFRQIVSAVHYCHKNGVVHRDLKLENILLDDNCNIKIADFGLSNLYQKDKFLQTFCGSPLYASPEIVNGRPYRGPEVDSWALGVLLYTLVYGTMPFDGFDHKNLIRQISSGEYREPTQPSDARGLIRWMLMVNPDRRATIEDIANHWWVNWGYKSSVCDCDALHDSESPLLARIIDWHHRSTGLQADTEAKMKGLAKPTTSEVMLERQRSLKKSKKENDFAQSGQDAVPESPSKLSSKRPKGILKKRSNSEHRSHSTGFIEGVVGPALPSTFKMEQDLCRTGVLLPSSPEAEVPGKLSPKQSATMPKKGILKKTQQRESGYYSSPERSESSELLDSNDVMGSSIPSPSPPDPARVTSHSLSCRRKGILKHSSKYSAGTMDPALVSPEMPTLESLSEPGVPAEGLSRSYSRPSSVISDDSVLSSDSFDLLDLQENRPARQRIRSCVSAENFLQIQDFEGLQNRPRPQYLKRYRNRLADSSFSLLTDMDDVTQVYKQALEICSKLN
Description: Inhibition of ARK5 at 1 uM.

Data set [9] addresses T1, Macrophage colony-stimulating factor 1 receptor. Description: Inhibition of CSF1R at 1 uM.
The subject of data set [10] is Mus musculus. Description: Inhibition of phosphorylated CSF1R level in 3T3/CSF1R mutant cells xenografted nude mouse at 25 mg/kg, po after 2 hrs by ELISA. The format is functional.
Data set [11] deals with ALK tyrosine kinase receptor (Homo sapiens) (UniProt Q9UM73). Description: Inhibition of ALK at 1 uM.
Data set [12] addresses Ribosomal protein S6 kinase alpha-1 (Homo sapiens) (UniProt Q15418). The data set can be described thus: Inhibition of RSK1 at 1 uM.
Data set [13] concerns Mus musculus. Description: Inhibition of phosphorylated CSF1R level in 3T3/CSF1R mutant cells xenografted nude mouse at 25 mg/kg, po after 6 hrs by ELISA. It counts as functional. In general terms: ELISA stands for enzyme-linked immunosorbent assay.

Each structure is given as a SMILES string. ≈ marks a conversion by molar mass, not a printed value.

T1 sequence (P07333 whole entry): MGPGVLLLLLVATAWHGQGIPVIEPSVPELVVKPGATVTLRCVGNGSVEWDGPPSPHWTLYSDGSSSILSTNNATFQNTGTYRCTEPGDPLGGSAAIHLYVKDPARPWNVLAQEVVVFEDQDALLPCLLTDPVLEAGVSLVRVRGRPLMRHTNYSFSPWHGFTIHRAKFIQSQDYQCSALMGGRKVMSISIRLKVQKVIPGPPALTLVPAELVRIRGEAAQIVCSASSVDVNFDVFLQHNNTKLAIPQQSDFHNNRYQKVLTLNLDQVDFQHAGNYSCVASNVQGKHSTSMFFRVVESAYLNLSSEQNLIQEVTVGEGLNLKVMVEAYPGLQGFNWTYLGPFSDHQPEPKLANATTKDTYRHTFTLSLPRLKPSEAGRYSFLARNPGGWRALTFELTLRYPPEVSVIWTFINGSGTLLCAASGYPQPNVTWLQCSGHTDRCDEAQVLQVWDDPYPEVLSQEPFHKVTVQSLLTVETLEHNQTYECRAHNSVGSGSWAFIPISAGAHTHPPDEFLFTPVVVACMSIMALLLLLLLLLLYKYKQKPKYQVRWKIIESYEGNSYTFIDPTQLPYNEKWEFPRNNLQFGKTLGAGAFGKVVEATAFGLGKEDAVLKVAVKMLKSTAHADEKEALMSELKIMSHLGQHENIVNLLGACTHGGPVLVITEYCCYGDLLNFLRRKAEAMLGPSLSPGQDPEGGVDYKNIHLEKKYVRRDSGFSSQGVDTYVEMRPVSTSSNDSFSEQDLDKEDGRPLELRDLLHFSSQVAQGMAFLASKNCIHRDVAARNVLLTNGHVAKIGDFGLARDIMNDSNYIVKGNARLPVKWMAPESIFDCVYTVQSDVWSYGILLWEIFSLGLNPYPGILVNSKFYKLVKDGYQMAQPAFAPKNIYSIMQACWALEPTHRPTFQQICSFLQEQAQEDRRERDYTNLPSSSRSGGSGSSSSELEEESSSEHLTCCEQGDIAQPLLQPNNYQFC
Sequence of ALK tyrosine kinase receptor (Homo sapiens) (Q9UM73 19-1620 limits assumed): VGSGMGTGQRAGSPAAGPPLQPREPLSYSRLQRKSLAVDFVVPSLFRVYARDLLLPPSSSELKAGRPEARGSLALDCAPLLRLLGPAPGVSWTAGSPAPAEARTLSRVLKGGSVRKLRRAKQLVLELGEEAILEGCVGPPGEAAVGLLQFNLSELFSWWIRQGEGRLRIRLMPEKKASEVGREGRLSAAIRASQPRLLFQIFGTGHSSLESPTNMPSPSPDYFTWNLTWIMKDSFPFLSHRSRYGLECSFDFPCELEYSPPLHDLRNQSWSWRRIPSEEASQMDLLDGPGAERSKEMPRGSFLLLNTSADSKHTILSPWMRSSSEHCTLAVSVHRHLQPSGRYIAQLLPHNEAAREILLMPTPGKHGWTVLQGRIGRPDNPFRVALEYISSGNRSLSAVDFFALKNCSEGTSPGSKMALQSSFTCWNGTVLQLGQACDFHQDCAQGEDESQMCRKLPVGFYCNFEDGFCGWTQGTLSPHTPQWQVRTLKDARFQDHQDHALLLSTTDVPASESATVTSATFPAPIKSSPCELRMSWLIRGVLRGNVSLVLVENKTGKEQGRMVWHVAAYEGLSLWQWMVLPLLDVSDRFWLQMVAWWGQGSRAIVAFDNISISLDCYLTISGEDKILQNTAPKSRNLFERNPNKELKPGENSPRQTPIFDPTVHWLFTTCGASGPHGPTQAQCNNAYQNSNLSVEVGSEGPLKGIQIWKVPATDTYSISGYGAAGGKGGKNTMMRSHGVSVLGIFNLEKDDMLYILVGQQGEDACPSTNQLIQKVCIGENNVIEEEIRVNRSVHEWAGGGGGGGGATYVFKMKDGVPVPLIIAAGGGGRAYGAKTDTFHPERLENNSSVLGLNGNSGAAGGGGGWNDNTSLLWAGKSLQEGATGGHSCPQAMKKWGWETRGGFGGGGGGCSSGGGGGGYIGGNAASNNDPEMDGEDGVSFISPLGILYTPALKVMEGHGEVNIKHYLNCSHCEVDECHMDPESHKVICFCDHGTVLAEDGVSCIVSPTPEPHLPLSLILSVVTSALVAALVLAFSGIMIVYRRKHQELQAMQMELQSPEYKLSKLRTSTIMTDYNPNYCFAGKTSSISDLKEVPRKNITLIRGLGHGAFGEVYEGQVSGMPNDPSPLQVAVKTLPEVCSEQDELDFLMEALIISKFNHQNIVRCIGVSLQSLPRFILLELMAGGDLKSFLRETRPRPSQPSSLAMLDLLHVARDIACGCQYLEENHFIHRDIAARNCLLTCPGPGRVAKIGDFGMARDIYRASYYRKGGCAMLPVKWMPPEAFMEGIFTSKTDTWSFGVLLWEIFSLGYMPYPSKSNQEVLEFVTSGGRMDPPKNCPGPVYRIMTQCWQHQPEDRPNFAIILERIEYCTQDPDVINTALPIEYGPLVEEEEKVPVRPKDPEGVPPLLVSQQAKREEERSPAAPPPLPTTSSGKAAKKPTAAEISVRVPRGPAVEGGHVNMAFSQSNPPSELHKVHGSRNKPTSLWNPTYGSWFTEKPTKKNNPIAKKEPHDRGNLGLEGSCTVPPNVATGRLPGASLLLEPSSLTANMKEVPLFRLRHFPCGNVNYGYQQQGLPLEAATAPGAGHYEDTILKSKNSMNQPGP
Sequence of Ribosomal protein S6 kinase alpha-1 (Homo sapiens) (Q15418 whole entry): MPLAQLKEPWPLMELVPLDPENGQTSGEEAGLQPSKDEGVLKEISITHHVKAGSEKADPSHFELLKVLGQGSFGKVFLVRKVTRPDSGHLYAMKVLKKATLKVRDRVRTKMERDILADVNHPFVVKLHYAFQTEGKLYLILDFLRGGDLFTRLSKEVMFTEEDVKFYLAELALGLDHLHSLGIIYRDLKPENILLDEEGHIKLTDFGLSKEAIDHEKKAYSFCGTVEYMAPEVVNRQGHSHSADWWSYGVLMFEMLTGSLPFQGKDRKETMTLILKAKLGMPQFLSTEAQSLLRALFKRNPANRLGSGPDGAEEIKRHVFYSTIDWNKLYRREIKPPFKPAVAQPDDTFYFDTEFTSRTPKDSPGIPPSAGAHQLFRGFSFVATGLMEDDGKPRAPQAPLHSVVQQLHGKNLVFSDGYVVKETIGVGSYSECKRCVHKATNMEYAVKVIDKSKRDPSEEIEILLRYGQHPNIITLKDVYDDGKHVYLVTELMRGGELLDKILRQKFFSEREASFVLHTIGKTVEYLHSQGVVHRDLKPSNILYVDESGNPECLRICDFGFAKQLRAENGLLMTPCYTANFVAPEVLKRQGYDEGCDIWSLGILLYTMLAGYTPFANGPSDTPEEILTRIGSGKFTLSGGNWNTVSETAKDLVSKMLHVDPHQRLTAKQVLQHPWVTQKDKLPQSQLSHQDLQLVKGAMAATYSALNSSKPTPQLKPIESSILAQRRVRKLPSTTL

By IC50 is commonly meant the concentration needed to halve the response being measured. The compound `COc1cc2c(Nc3ccc(Cl)c(Cl)c3)c(C(N)=O)cnc2cc1N1CCN(C)CC1` registered an Activity with NIH3T3 of 0.55 µM. Also, the half-maximal inhibitory concentration (IC50) in data set [1] was 24 nM.
For orientation: half-life means the time in which the quantity being followed falls by half. A word on the solubility: it is the concentration that dissolves in the medium under given conditions. Low values mean a poorly soluble substance, high ones a readily soluble substance. In general, fraction unbound refers to the share of the substance not bound to proteins or other matrix. The compound `COc1cc2ncc(C(N)=O)c(Nc3ccc(F)cc3F)c2cc1N1CCN(C)CC1` yielded an Activity with NIH3T3 of 1 µM. Also, in data set [2], the half-life is 1.8 h. The Vd in [3] came out at 2.3 L/kg. The same compound gave a solubility in [4] greater than 1000 µM. The unbound share (fraction unbound) in data set [5] amounted to 0.25. Further, the bioavailability in data set [6] is 90%. The same compound registered a clearance in data set [7] of 15 mL/min/kg. Further, in data set [1], the IC50 is 6 nM.
The inhibition is the share of the control response that was lost under treatment. A lower inhibition goes with a response near the control. Broadly, the inhibition in vivo is the share of the control response that was lost under treatment. In the case of `CCOc1cc2ncc(C(N)=O)c(Nc3ccc(F)cc3F)c2cc1N1CCN(C)CC1`, the inhibition in data set [8] came to 51%; in [9], 96%; in [11], 23%; in data set [12] it was 21%. In data set [2], this compound gave a half-life of 2.1 h. The Vd in data set [3] amounted to 2.5 L/kg. The same compound gave a solubility in data set [4] of 290 µM (≈ 128 µg/mL). For the same compound, in data set [5], the fraction unbound amounted to 0.11. In addition, the values for the inhibition in vivo at 25 mg/kg with Mus musculus [10] and in the data set with Mus musculus [13] were 90% and 65%, respectively. Moreover, the bioavailability in data set [6] turned out to be 100%. The compound further registered a clearance in data set [7] of 12 mL/min/kg. In data set [1], this compound came in with an IC50 of 6 nM.
`CN1CCN(c2ccc3ncc(C(N)=O)c(Nc4ccc(F)cc4F)c3c2)CC1` gave an Activity in the data set on NIH3T3 of 3.9 µM. The half-life in data set [2] was 1.9 h. For the same compound, the Vd in data set [3] was 7.6 L/kg. The compound further yielded a solubility in data set [4] of 970 µM (≈ 386 µg/mL). The unbound share (fraction unbound) in [5] came out at 0.26. In data set [6], the bioavailability was determined as 21%. Also, the clearance in data set [7] turned out to be 45 mL/min/kg. Also, inhibition in data set [1] was half-maximal at 110 nM (IC50).
Compound `CCOc1cc2ncc(C(N)=O)c(Nc3cccc(Cl)c3Cl)c2cc1N1CCN(CC)CC1` came in with an Activity with NIH3T3 of 0.02 µM. In addition, the half-life in [2] is 1.2 h. In data set [3], the Vd was 6.8 L/kg. In data set [4], this compound gave a solubility of 11 µM (≈ 5.37 µg/mL). The fraction unbound in data set [5] turned out to be 0.019. Further, the inhibition in vivo at 25 mg/kg in the data set on Mus musculus [10] was determined as 95%; with Mus musculus [13] it was 75%. Also, the bioavailability in [6] turned out to be 19%. Moreover, in data set [7], the clearance was 86 mL/min/kg.
Compound `CN1CCN(c2ccc3ncc(C(N)=O)c(Nc4ccc(Cl)c(Cl)c4)c3c2)CC1` came in with an Activity in the data set on NIH3T3 of 2.7 µM. Also, the concentration in solution in [4] (solubility) came to 720 µM (≈ 310 µg/mL). For the same compound, in data set [5], the fraction unbound came to 0.058. Also, the 50% inhibitory concentration (IC50) in data set [1] came out at 59 nM.
The like results for `CN1CCN(c2ccc3ncc(C(N)=O)c(Nc4ccc(Cl)cc4Cl)c3c2)CC1` were, in that order, 8.9 µM, 180 µM (≈ 77.5 µg/mL), 0.018 and 129 nM.
For `CCOc1cc2ncc(C(N)=O)c(Nc3cc(F)ccc3F)c2cc1N1CCN(C)CC1`, the Activity in the data set with NIH3T3 amounted to 0.11 µM. In addition, the half-life in data set [2] is 1.3 h. In data set [3], the Vd amounted to 2.9 L/kg. The solubility in data set [4] stood at 71 µM (≈ 31.3 µg/mL). Also, the fraction unbound in [5] is 0.073. Besides, the inhibition in vivo at 25 mg/kg came out at 75% with Mus musculus [10] and 45% in the data set with Mus musculus [13]. Moreover, the bioavailability in [6] was determined as 33%. In addition, the clearance in data set [7] was determined as 28 mL/min/kg.
For the compound `CN1CCN(c2cc3c(Nc4cccc(Cl)c4Cl)c(C(N)=O)cnc3cc2F)CC1`, in the data set on NIH3T3, the Activity was 0.44 µM. Also, the half-life in data set [2] is 0.8 h. Moreover, in data set [3], the Vd is 1.1 L/kg. In data set [4], the concentration in solution (solubility) came to 8 µM (≈ 3.59 µg/mL). Besides, the free fraction (fraction unbound) in data set [5] amounted to 0.044. Also, the clearance in data set [7] is 23 mL/min/kg. The compound further returned an IC50 in data set [1] of 3 nM.
Consider `COc1cc2ncc(C(N)=O)c(Nc3ccc(Cl)cc3Cl)c2cc1N1CCN(C)CC1`, for which, in the data set with NIH3T3, the Activity is 0.64 µM. Besides, the half-life in [2] was 1.7 h. In addition, in [3], the Vd was 8.7 L/kg. In addition, the concentration in solution in [4] (solubility) came to 160 µM (≈ 73.7 µg/mL). The free fraction (fraction unbound) in data set [5] worked out at 0.032. The compound further registered a clearance in data set [7] of 72 mL/min/kg. Also, half-maximal inhibition in [1] (IC50) required 3 nM.
Take `COc1cc2c(Nc3ccc(F)cc3F)c(C(N)=O)cnc2cc1N1CCN(C)CC1`: the Activity with NIH3T3 amounted to 0.72 µM. The compound further registered a solubility in [4] greater than 1000 µM. This compound showed an IC50 in data set [1] of 11 nM.
Regarding `CCOc1cc2ncc(C(N)=O)c(Nc3cccc(Cl)c3Cl)c2cc1N1CCN(C(C)C)CC1`, in the data set on NIH3T3, the Activity came out at 0.02 µM. Further, the half-life in [2] is 1.2 h. Moreover, the Vd in data set [3] was determined as 11 L/kg. The compound also came in with a solubility in data set [4] of 250 µM (≈ 126 µg/mL). For the same compound, the free fraction (fraction unbound) in data set [5] was 0.015. Besides, the inhibition in vivo at 25 mg/kg came to 85% with Mus musculus [10] and 65% with Mus musculus [13]. Moreover, the bioavailability in [6] was found to be 66%. The clearance in data set [7] is 120 mL/min/kg.
`COc1cc2ncc(C(N)=O)c(Nc3cccc(Cl)c3Cl)c2cc1N1CCN(C)CC1` returned an Activity in the data set with NIH3T3 of 0.06 µM. This compound also gave a half-life in data set [2] of 2.5 h. Besides, the Vd in data set [3] was 6.8 L/kg. In addition, in [4], the concentration in solution (solubility) came to 810 µM (≈ 373 µg/mL). Moreover, in [5], the fraction unbound stood at 0.045. The bioavailability in data set [6] was 110%. This compound also had a clearance in [7] of 76 mL/min/kg. The same compound came in with an IC50 in data set [1] of less than 3 nM.
The compound `CCOc1cc2ncc(C(N)=O)c(Nc3cccc(Cl)c3Cl)c2cc1N1CCN(C)CC1` showed a half-life in [2] of 0.9 h. Besides, the Vd in [3] was found to be 3.5 L/kg. Further, the concentration in solution in data set [4] (solubility) came to 50 µM (≈ 23.7 µg/mL). In data set [5], the unbound share (fraction unbound) was 0.02. Further, the inhibition in vivo at 25 mg/kg in the data set with Mus musculus [10] amounted to 75%; in the data set on Mus musculus [13], 45%. The bioavailability in data set [6] is 100%. Moreover, in data set [7], the clearance turned out to be 57 mL/min/kg. The IC50 in data set [1] was less than 3 nM.
The compound `CN1CCN(c2ccc3ncc(C(N)=O)c(Nc4cccc(Cl)c4Cl)c3c2)CC1` yielded an Activity in the data set with NIH3T3 of 0.71 µM. Moreover, in data set [2], the half-life is 0.7 h. In addition, the Vd in [3] was 5.9 L/kg. In addition, the concentration in solution in data set [4] (solubility) came to 44 µM (≈ 18.9 µg/mL). The unbound share (fraction unbound) in [5] was found to be 0.046. The compound also had a clearance in [7] of 190 mL/min/kg. The compound further had a half-maximal inhibitory concentration (IC50) in [1] of 8 nM.
Consider `CCOc1cc2ncc(C(N)=O)c(Nc3cccc(Cl)c3Cl)c2cc1N1CCN(C(C)=O)CC1`, for which the Activity in the data set with NIH3T3 was found to be 0.07 µM. In [2], this compound had a half-life of 0.65 h. Moreover, in data set [3], the Vd came to 2.3 L/kg. Besides, in data set [4], the concentration in solution (solubility) came to 2 µM (≈ 1 µg/mL). For the same compound, in data set [5], the free fraction (fraction unbound) was found to be 0.096. The inhibition in vivo at 25 mg/kg in the data set with Mus musculus [10] was determined as 65%; in the data set with Mus musculus [13], 30%. Further, in data set [6], the bioavailability came out at 11%. Further, in [7], the clearance was determined as 62 mL/min/kg.
For the compound `CN1CCN(c2cc3c(Nc4ccc(F)cc4F)c(C(N)=O)cnc3cc2F)CC1`, the Activity with NIH3T3 came to 4.2 µM. The compound further had a half-life in data set [2] of 1.1 h. The Vd in data set [3] is 1.4 L/kg. This compound also showed a solubility in data set [4] of 71 µM (≈ 29.5 µg/mL). The fraction unbound in data set [5] turned out to be 0.24. In data set [6], the bioavailability is 13%. In data set [7], this compound registered a clearance of 20 mL/min/kg. In data set [1], inhibition was half-maximal at 54 nM (IC50).

Values taken from ChEMBL document CHEMBL1143306, “3-amido-4-anilinoquinolines as CSF-1R kinase inhibitors 2: Optimization of the PK profile” (Bioorg Med Chem Lett, 2009).
